According to publication PMC5290327, “SC83288 is a clinical development candidate for the treatment of severe malaria” (Nature Communications, 2017):
Converted amounts (≈) assume the structure as drawn.

Key:
[1] = system: 54 human transporters and receptors; assay: In vitro safety pharmacology profiling, whole panel; type: binding
Protocol: The study was carried out by Cerep (Celle l'Evescault, France). An in vitro pharmacological profiling panel was designed to detect potential high-risk clinical adverse drug reactions. The panel comprised of 54 targets.
The specific ligand binding to the receptors was defined as the difference between the total binding and the non-specific binding determined in the presence of an excess of unlabelled ligand. Results were expressed as a per cent of control specific binding and as a per cent inhibition of control specific obtained in the presence of the test compounds. Results showing an inhibition (or stimulation) >50% were considered to represent significant effects of the test compounds. […] The IC50 values were determined by non-linear regression analysis of the competition curves generated with mean replicate values using Hill equation curve fitting. The inhibition constants (Ki) were calculated using the Cheng Prusoff equation.

CYP3A4 = CYP3A4 (Homo sapiens, UniProt P08684); assay: CYP inhibition, human liver microsomes; conditions: 10 µM
Sequence of CYP3A4 (P08684 whole entry): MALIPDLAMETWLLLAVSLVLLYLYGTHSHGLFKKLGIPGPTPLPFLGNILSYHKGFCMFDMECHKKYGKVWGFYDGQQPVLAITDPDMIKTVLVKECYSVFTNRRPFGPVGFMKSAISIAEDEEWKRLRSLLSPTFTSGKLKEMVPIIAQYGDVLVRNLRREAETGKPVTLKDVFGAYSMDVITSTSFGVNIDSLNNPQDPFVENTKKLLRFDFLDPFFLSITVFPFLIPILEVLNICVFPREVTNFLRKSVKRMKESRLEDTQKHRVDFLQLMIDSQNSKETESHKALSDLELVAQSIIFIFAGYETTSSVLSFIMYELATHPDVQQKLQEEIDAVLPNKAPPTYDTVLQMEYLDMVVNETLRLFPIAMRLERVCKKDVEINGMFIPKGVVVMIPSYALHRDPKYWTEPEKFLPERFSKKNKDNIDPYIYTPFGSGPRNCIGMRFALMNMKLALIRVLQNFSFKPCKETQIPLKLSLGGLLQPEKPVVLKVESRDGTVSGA

Balb C 3T3 cells = assay: Cytotoxicity; conditions: 50 μM
[2] = system: drug-resistant P. falciparum lab strains other than Dd2; assay: Growth inhibition assay; type: cell-based; conditions: Plasmodium falciparum
Permeability assay = type: in vitro ADME; conditions: human; CACO 2 cells, 10 μM, apical side, 2 h
Protocol: The study was conducted by Cyprotex (Macclesfield, United Kingdom). CACO 2 cells (Sigma-Aldrich, catalogue: 86010202) were seeded on Millipore Millicell plates and formed a confluent monolayer over 20 days before the experiment. On day 20, the tested compounds at a final concentration of 10 μM were added to the apical side of the membrane. The transport of the compound across the monolayer was monitored over a 2 h period by liquid chromatography (LC)–MS/MS quantification. The permeability coefficient (Papp) was calculated from the following equation: [drawing 1] , where dQ/dt is the rate of permeation of the drug across the cells, C0 the donor compartment concentration at time zero and A the area of the cell monolayer. C0 was obtained from analysis of the dosing solution at the start of the experiment.

[3] = Solubility in phosphate buffer; type: physicochemical
Protocol: SC81458 and SC83288 were soluble in water (890 and 940 μg ml^−1, respectively) and organic solvents. […] The compounds were stable in different physiological solutions, including artificial gastric juice, simulated intestinal fluid, phosphate-buffered saline and human plasma, when incubated for 6 h at 37 °C.

[4] = system: P. falciparum strain Thai19; assay: Growth inhibition assay; type: cell-based; conditions: Plasmodium falciparum
P. falciparum strain K1 = assay: microbe, parasite or virus in culture; type: cell-based; conditions: Plasmodium falciparum
Plasmodium berghei = assay: Ex vivo one-cycle growth inhibition assay; type: cell-based
Protocol: This was the case for both an in vivo 4 day dosing regimen of 30 mg kg^−1 per day and an ex vivo one-cycle growth inhibition assay. […] Differential therapeutic efficacy in various rodent model systems is a well-established phenomenon and is typically associated with charged compounds, such as positively charged amidines and negatively charged phosphoric acid or carboxylic acid containing drugs. The phenomenon is explained based on selective uptake of charged compounds through parasite-induced channels, termed new permeation pathways, in the host cell plasma membrane and species-specific characteristics of the new permeation pathways.

Solubility in water = conditions: water
NOP (ORL1) (h) = target: T1, NOP (ORL1) (h) (Homo sapiens, UniProt P41146); assay: Radioligand binding
T1 construct: Cerep
T1 sequence (P41146 whole entry): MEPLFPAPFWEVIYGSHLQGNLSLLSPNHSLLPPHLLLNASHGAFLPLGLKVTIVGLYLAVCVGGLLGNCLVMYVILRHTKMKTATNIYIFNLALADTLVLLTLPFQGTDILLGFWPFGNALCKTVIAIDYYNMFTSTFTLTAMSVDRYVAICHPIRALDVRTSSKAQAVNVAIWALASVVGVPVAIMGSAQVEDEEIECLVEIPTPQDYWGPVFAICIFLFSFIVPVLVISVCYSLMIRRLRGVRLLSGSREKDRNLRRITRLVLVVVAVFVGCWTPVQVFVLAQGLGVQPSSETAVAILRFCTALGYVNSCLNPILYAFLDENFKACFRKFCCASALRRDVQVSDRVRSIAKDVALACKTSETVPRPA

A3 (h) = target: T2, A3 (h) (Homo sapiens, UniProt P0DMS8); assay: Radioligand binding
T2 construct: Cerep (contract study)
T2 sequence (P0DMS8 whole entry): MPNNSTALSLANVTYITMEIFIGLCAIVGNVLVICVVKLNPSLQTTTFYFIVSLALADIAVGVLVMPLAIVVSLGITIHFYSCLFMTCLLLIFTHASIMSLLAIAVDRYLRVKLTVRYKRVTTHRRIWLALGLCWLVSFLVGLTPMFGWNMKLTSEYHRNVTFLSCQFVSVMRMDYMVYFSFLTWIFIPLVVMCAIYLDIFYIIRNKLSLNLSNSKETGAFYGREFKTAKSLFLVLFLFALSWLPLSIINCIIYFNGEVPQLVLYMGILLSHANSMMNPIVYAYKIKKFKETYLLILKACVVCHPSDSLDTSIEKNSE

M3 (h) = target: T3, M3 (h) (Homo sapiens, UniProt P20309); assay: Radioligand binding
T3 construct: Cerep
T3 sequence (P20309 whole entry): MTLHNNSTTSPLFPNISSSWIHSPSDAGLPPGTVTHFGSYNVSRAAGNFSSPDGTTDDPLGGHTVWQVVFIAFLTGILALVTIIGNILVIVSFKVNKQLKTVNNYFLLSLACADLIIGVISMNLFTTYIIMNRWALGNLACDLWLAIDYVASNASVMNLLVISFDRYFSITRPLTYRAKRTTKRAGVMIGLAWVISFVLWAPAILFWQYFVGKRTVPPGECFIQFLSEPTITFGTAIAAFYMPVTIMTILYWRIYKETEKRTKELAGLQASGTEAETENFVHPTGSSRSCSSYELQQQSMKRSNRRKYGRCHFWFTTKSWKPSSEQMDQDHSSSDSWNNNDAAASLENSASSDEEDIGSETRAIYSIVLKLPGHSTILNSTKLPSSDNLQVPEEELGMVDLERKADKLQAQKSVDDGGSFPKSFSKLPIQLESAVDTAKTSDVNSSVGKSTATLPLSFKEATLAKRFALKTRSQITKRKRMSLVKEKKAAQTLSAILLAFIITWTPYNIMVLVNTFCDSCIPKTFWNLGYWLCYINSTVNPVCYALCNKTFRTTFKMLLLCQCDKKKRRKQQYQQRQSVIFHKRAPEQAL

[5] = system: human peripheral blood macrophages; assay: Cytotoxicity; conditions: 50 μM
Ames test = conditions: 50 μM
hERG channel = target: T4, hERG channel (Homo sapiens, UniProt Q12809); assay: hERG profiling, whole cell patch-clamp; type: cell-based
T4 construct: expressed in transfected cells; host or cells: HEK 293
T4 sequence (Q12809 whole entry): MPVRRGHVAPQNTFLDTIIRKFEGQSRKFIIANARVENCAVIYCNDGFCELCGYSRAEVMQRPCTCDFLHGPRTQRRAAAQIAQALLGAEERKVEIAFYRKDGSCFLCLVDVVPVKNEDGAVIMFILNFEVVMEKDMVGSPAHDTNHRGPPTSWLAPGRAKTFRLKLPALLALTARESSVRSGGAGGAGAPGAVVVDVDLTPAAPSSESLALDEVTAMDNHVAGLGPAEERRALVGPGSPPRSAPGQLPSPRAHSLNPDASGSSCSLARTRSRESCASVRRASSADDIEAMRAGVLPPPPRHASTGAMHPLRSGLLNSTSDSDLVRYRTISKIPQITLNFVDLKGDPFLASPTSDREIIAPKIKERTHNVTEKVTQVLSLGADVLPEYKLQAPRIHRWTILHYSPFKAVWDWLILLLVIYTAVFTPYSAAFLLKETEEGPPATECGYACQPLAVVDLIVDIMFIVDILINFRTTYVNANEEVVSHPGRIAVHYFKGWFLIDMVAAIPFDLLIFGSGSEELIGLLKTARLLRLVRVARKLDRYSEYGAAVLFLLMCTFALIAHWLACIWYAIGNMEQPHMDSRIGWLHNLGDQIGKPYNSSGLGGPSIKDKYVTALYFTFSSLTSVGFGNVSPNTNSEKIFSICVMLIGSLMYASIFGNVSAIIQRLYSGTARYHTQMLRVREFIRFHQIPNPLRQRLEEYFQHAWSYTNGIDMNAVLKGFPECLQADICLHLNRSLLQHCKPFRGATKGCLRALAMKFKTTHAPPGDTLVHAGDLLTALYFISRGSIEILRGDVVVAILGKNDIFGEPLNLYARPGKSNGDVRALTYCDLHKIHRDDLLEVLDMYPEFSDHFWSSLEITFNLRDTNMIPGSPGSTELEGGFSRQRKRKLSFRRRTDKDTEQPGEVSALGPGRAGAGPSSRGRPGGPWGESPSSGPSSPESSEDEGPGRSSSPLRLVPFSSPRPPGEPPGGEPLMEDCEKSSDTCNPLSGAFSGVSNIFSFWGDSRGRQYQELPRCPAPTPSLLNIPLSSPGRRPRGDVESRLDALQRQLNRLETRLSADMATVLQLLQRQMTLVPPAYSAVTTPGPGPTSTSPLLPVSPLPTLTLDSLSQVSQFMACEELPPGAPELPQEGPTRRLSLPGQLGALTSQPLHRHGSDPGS
Protocol: A HEK 293 cell line (Sigma Aldrich, catalogue number: 85120602) constitutively expressing the hERG channel in the membrane was used for the assay. The cells were cultured in MEM with Earle's salts and L-glutamine (10% FCS, non-essential amino acids, 300 μg ml^−1 Geneticin (G418)) and kept at 37 °C and under 5% CO2. Cells were routinely split every 3–4 days at a 1:5–1:10 ratio. The electrophysiological measurements were performed using the whole cell patch-clamp method. Extracellular bath solution contained 137 mM NaCl, 4 mM KCl, 1 mM MgCl2, 1.8 mM CaCl2, 10 mM glucose, 10 mM HEPES (pH 7.4 with NaOH), the intracellular pipette solution 130 mM KCl, 1 mM MgCl2, 5 mM MgATP, 5 mM EGTA and 10 mM HEPES (pH 7.2 with KOH). To assess the effects of SC81458 and SC83288 on the current through the hERG channel, a 1,500 ms of conditioning voltage pulse was applied every 20 s by the holding membrane potential (−80 mV) is carried out to +40 mV followed by a 500 ms test pulse of +40 mV to −40 mV. The amplitude of the current peak induced by the test pulse was determined at equilibrium (I0) and after (Idrug) addition of the substance. After the application of the substance, the cells were rinsed with extracellular bath solution until a complete recovery of the current occurred; otherwise, the cells were replaced with new ones.

[6] = system: P. falciparum strains 3D7 and W2; assay: Efficacy in the Pf/NSG mouse model; type: in vivo, Plasmodium falciparum; conditions: for reduction of parasite burden within the first 24 h: 10.0 mg kg^−1 per day i.p.; for recrudescence of the infection: 3 weeks survey, exception 3D7-infected mice treated with 2.5 mg kg^−1 of SC81458; for In vivo PCT99.9%: i.p. once per day 4 days
[7] = target: T5, norepinephrine transporter (h) (Homo sapiens, UniProt P23975); assay: Radioligand binding
T5 construct: Cerep (contract screening)
T5 sequence (P23975 whole entry): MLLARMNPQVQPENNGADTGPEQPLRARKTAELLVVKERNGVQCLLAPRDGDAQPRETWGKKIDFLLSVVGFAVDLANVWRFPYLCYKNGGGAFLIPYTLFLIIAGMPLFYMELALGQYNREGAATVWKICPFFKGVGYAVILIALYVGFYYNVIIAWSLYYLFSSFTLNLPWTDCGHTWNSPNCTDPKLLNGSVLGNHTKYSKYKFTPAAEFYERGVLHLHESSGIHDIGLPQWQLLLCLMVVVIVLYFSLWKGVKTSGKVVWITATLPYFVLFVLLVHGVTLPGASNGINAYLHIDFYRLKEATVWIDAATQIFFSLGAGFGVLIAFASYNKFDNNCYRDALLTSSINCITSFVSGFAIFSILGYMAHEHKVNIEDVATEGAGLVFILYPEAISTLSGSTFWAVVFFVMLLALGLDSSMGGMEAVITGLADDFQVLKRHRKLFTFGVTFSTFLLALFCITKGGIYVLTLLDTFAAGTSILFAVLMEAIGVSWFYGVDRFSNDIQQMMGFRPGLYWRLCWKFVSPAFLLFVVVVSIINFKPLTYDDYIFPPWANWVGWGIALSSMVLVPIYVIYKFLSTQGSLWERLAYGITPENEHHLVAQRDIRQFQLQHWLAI

[8] = system: synchronized Dd2 rings, trophozoites, schizonts; assay: Stage-specific activity, 6 h exposure, [3H] hypoxanthine; type: cell-based; conditions: Plasmodium falciparum, DD2, 6 h
[9] = CYP3A4a, midazolam to 1'-OH-midazolam
[10] = CYP3A4b, testosterone to 6β-OH-testosterone
[11] = CYP3A4c, omeprazole to omeprazole sulphone
[12] = CYP3A4d, omeprazole to 3-OH-omeprazole

Structure (SMILES) | binding potential to 54 human transporters and receptors [1] | Remaining enzyme activity (CYP3A4; [9]) | Remaining enzyme activity (CYP3A4; [10]) | Remaining enzyme activity (CYP3A4; [11]) | Remaining enzyme activity (CYP3A4; [12]) | in vitro propagation / cytotoxicity (Balb C 3T3 cells) | IC50 [2] | Papp at 2 h, 10 μM (Permeability assay) | solubility ([3]; pH 4, aqueous buffer) | solubility ([3]; pH 9, aqueous buffer) | IC50 [4] | IC50 (P. falciparum strain K1) | activity, ex vivo one-cycle growth inhibition assay (Plasmodium berghei) | solubility (Solubility in water) | Inhibition of control specific binding (NOP (ORL1) (h)) | Inhibition of control specific binding (A3 (h)) | Inhibition of control specific binding (M3 (h)) | in vitro propagation / cytotoxicity [5] | genotoxicity in a reverse Ames test (Ames test) | reduction of parasite burden within the first 24 h [6] | further results
CCCCN1CCN(C(=N)c2cccc(NC(=O)Nc3ccc(S(=O)(=O)NCc4ccc(S(N)(=O)=O)cc4)cc3)c2)CC1 [SC81458, 4-(3-(3-((4-butylpiperazin-1-yl)(imino)methyl)phenyl)ureido)-N-(4-sulfamoylbenzyl) benzenesulfonamide] | low to moderate | 74% | 77% | 66% | 98% | did not affect | < 20 nM | 0.76 ×10⁻⁶ cm/s | 1800 µM (≈ 1130 µg/mL) | 400 µM (≈ 251 µg/mL) | 7 ± 1 nM | 9 ± 3 nM | inactive | 890 µg/mL (≈ 1420 µM) | 2% | 0% | 48% | did not affect | no signs of genotoxicity | ~97% | hERG activity retained (hERG channel; 60 μM): > 90%; recrudescence of the infection [6]: no recrudescence; In vivo PCT99.9% ([6]; humanized NSG mouse): <48 h; Inhibition of control specific binding [7]: 73%; IC50 ([8]; ring stages): 5000 ± 1000 nM; IC50 ([8]; schizonts): 70 ± 10 nM; IC50 ([8]; trophozoites): 37 ± 3 nM
COC(=O)N1CCN(C(=N)c2cccc(NC(=O)Nc3ccc(S(=O)(=O)NCc4ccc(S(N)(=O)=O)cc4)cc3)c2)CC1 [SC83288, methyl 4-(imino(3-(3-(4-(N-(4-sulfamoylbenzyl)sulfamoyl)phenyl)ureido)phenyl)methyl) piperazine-1-carboxylate] | low to moderate | 92% | 88% | 87% | 92% | did not affect | < 20 nM | 0.42 ×10⁻⁶ cm/s | 2600 µM (≈ 1640 µg/mL) | 800 µM (≈ 504 µg/mL) | 4 ± 1 nM | 5 ± 1 nM | inactive | 940 µg/mL (≈ 1490 µM) | 10% | 0% | 55% | did not affect | no signs of genotoxicity | ~93% | hERG activity retained (hERG channel; 20 μM): > 90%; hERG channel remaining active (hERG channel; 100 μM): 50%; recrudescence of the infection [6]: no recrudescence; free-minimal parasiticidal concentration (MPC) ([6]; NSG mice): 200 nM; ED50 (free plasma concentration) ([6]; NSG mice, 2 days after commencement of treatment, sigmoidal model fit): 45 nM; ED90 (free plasma concentration) ([6]; NSG mice, sigmoidal model fit): 80 nM; reduction of parasitemia over a replicative cycle of 48 h ([6]; humanized NSG mouse): 99.9%; In vivo PCT99.9% ([6]; humanized NSG mouse): 48 h; In vivo logPRR ([6]; humanized NSG mouse, no distinction between strains): 3.0; Inhibition of control specific binding [7]: 59%; IC50 ([8]; ring stages): 3000 ± 1000 nM; IC50 ([8]; schizonts): 110 ± 30 nM; IC50 ([8]; trophozoites): 40 ± 4 nM
